As a reminder, the IC50 is the concentration that inhibits the measured activity by half.

Where no end group is shown, it is not given here.

T1 sequence (Q95254 whole entry): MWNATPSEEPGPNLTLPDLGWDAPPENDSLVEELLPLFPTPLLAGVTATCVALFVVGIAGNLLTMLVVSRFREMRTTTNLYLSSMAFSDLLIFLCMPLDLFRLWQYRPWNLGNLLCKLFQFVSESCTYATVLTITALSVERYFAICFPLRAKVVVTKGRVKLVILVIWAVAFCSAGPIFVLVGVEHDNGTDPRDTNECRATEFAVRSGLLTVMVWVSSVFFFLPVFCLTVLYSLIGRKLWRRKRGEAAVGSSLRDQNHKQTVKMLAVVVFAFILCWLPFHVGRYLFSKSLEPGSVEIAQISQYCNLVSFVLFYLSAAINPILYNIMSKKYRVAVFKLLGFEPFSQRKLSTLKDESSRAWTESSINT

The first assay concerns the target T1, growth hormone secretagogue receptor (GHSR), porcine anterior pituitary membranes (Sus scrofa, UniProt Q95254).
T1 construct: Frozen anterior pituitary glands from male swine (50-80 Kg); from tissue; host or cells: anterior pituitary glands of male swine (50-80 kg), crude membranes
Description: [35S]-Compound A radioreceptor binding, porcine anterior pituitary membranes.
Conditions: not given
On the procedure: Frozen anterior pituitary glands from male swine (50-80 Kg) or from the Wistar male rats (150-200 g) were homogenized in a tissue homogenizer in ice-cold buffer (50 mM Tris-HCl buffer, pH 7.4, 5 mM MgCl2, 2.5 mM EDTA, 0.1% bovine serum albumin and 30 μg/ml bacitracin). The homogenates were centrifuged for 5 min at 1,400×g and the resulting supernatants were then centrifuged at 34,000×g for 20 min. The pellets were resuspended in same buffer to a 1,500 μg protein/ml and stored at -80° C. Protein was determined by a Bio-Rad method (Bio-Rad Laboratories, Richmond, Calif.).
Aliquots were incubated at 20° C. for 60 min and bound radioligand was separated from free by filtration through GF/C filters pretreated with 0.5% of polyethylenimine in a Brandel cell harvester. […] Assays were carried out in triplicate and experiments repeated at least three times.
In turn, `Nc1nc2c(ncn2[C@@H]2O[C@H](COP(=O)(O)OP(=O)(O)OP(O)(O)=S)[C@@H](O)[C@H]2O)c(=O)[nH]1` [GTP-γ-S] displayed an IC50 of 30 nM.

Still in this assay, the particulars now being: 1 μM.
Take galanin: the “competition with [35S]-Compound A at 1 μM (in words)” value (from here on “competition … at 1 μM (in words)”) was “did not compete”.
For `CC(C)C[C@H]1C(=O)N2CCC[C@H]2[C@]2(O)O[C@](NC(=O)[C@@H]3C=C4c5cccc6[nH]c(Br)c(c56)C[C@H]4N(C)C3)(C(C)C)C(=O)N12` [bromocriptine], the “competition … at 1 μM (in words)” value is “did not compete”.
Same read-out and setting: the value for met-enkephalin was “did not compete”; that for `CC(C)NC[C@H](O)COc1cccc2ccccc12` (racemic) [propanolol] was “did not compete”; that for “pituitary adenylate cyclase activating polypeptide-38” was “did not compete”.
On the same count and under the same terms, the value for substance P was “did not compete”; that for `COc1cccc(OC)c1OCCNCC1CSc2ccccc2O1` (stereo not drawn) [benoxathian] was “did not compete”; that for `CC(C)NCC(O)c1ccc(O)c(O)c1` (stereo not drawn) [isoproterenol] was “did not compete”.
For the compound “gastrin releasing peptide (VPLPAGGGTVLTKMYPRGNHWAVGHLM; ends and bridges not checked; UniProt P07492 24-50, looked up)”, the “competition … at 1 μM (in words)” value is reported as “did not compete”.
On the same count and under the same terms, the value for “PHM-27 (HADGVFTSDFSKLLGQLSAKKYLESLM; ends and bridges not checked; UniProt P01282 81-107, looked up)” was “did not compete”.
On the same count and under the same terms, the value for melanocyte stimulating hormone was “did not compete”.
gonadotropin releasing hormone: the “competition … at 1 μM (in words)” value was “did not compete”.
On the same count and under the same terms, the value for `CC(COc1ccccc1)N(CCCl)Cc1ccccc1` (stereo not drawn) [phenoxybenzamine] was “did not compete”; that for somatostatin: hypothalamic hormone was “did not compete”.
On the same count and under the same terms, for “GHRH: hypothalamic hormone, growth hormone releasing factor” the value was “did not compete”; for `Clc1cccc(Cl)c1N=C1NCCN1` [clonidine], “did not compete”.
As to `COc1ccc(OC)c(C(O)C(C)N)c1` (stereo not drawn) [methoxamine], the “competition … at 1 μM (in words)” value was “did not compete”.
On the same count and under the same terms, the value for `NC(=O)[C@@H]1CCCN1C(=O)[C@H](Cc1cnc[nH]1)NC(=O)[C@@H]1CCC(=O)N1` [thyrotropin releasing hormone] was “did not compete”.

Staying with this assay, now noted: % of affinity of Compound A.
With `CC(C)(N)CC(=O)N[C@@H]1CCc2ccccc2N(Cc2ccc(-c3ccccc3-c3nn[nH]n3)cc2)C1=O` [Compound B], the “affinity relative to that of Compound A” value came out at 0.4%.
Regarding GHRP-6, the “affinity relative to that of Compound A” value amounted to 3.8%.

Staying with this assay, now noted: GTP analogs / nucleotides; FIG. 26; read-out: inhibition of [35S]-Compound A binding, IC50.
On to `Nc1nc2c(ncn2[C@@H]2O[C@H](COP(=O)(O)OP(=O)(O)NP(=O)(O)O)[C@@H](O)[C@H]2O)c(=O)[nH]1` [GMP-PNP], for which the IC50 worked out at 110 nM.

Still in this assay, the particulars now being: double reciprocal plot of saturation isotherm; FIG. 25.
As for `CC(C)(N)CC(=O)N[C@@H]1CCc2ccccc2N(Cc2ccc(-c3ccccc3-c3nn[nH]n3)cc2)C1=O` [Compound B], the “nature of competition with [35S]-Compound A (in words)” value was “competitor of [^35 S]-Compound A binding”.
Same read-out and setting: for GHRP-6 the value was “interacts competitively with Compound A in the same binding site”.

Still in this assay, the particulars now being: nucleotides; FIG. 26.
In the case of `Nc1ncnc2c1ncn2[C@@H]1O[C@H](COP(=O)(O)OP(=O)(O)OP(O)(O)=S)[C@@H](O)[C@H]1O` [ATP-γ-S], the “effect on [35S]-Compound A binding (in words)” value was “ineffective”.

The same assay, now with this note: unlabeled competitor; FIG. 24.
For `CC(C)(N)CC(=O)N[C@H]1CCc2ccccc2N(Cc2ccc(-c3ccccc3-c3nn[nH]n3)cc2)C1=O` [Compound C], the “displacement of / competition with [35S]-Compound A binding (in words)” value is on record as “competed poorly”.

A further assay addresses growth hormone secretagogue receptor (GHSR) of swine, native receptor of the anterior pituitary (swine) (UniProt Q95254). Description: competition with [35S]-Compound A on porcine anterior pituitary membranes, filtration.
Conditions: not given
As to GHRP-6 (peptide), the affinity as percent of that of Compound A turned out to be 3.8%.
